Experimental findings from patent US20070191324A1, “Methods for treatment or prophylaxis of aldosterone-mediated pathogenic effects in a subject using an epoxy-steroidal aldosterone antagonist” (priority 1999, published 2007) are described below.

The test system of data set [1] is L-NAME/Angiotensin II/NaCl-treated rats. The experiment in a line: L-NAME/Angiotensin II/NaCl model of cardiac and renal injury (Example A-1). In kind it is in vivo, Male Wistar rats. To be noted: Epl 100 mg/kg/day p.o., ALDO 40 μg/kg/day in adrenalectomized rats. How it is done: Animals. Male Wistar rats (n=44), weighing 200 to 225 grams, and obtained from Charles River Laboratories (Wilmington, Mass.) were used in the study. All animals were housed in a room lighted 12 hours per day at an ambient temperature of 22±1° C. Animals were allowed one week to recover after arrival and had free access to Purina Lab Chow 5001 (Ralston Purina Inc, St. Louis, Mo.) and tap water until the initiation of the experiment. After initiation of the protocols, animals in all groups were placed in individual metabolic cages, handled and weighed daily. Twenty-four hour fluid intake, food intake and urine output were measured daily. […] On day 14 of L-NAME treatment, animals were decapitated, trunk blood was collected into chilled tubes containing ethylene diamine tetraacetic acid and the heart and kidneys were removed, blotted dry and immediately weighed. […] Drugs. Eplerenone was supplied by G.D. Searle Pharmaceuticals (St. […] Dexamethasone was dissolved in sesame oil and administered as a single subcutaneous dose (12 μg/kg/day) every day. This dose of dexamethasone has been reported to, maintain normal weight gain, glomerular filtration rate, and fasting plasma glucose and insulin levels in adrenalectomized rats. Stanton, B., Giebisch G et al. J. Clin. Invest 1985 75:1317-1326. The experiment was concluded on day 14 of L-NAME treatment. […] (Hou J et al. J. Clin. Invest 1995 96:2469-2477. […] This lower dose induced lesions in stroke-prone spontaneously hypertensive rats. (Rocha R et al. […] Dexamethasone, aldosterone and L-NAME were purchased from Sigma Chemical Co. (St. Louis, Mo.). […] Surgical Procedure. […] Bilateral adrenalectomy was performed using a dorsolumbar approach, making separate incisions on each side. […] No post operative deaths occurred. Assays and Analyses. Systolic blood pressure was measured in awake animals by tail-cuff plethysmography using a Natsume KN-210 manometer and tachometer (Peninsula Laboratories Inc, Belmont, Calif.). Rats were warmed at 37° C. for 10 minutes and allowed to rest quietly in a Lucite chamber before measurement of blood pressure. Urinary protein concentration was determined in urine collected on the last day of the experiment using the sulfosalicylic acid turbidity method. […] Plasma aldosterone concentration was determined using a standard radioimmunoassay-kit from Diagnostic Products Co. (Los Angeles, Calif.). Plasma renin activity (“PRA”) was determined by radioimmunoassay detection of generated angiotensin I (DiaSorin Inc., Stillwater, Minn.). Histology. Hearts were stained with collagen specific dye Sirius red for determination of fibrosis as reported elsewhere. (Young M et al. Am. J. Physiol 1995 269:[…]-[…]). Interstitial collagen was determined using an automated image analyzer. The hearts were also stained with hematoxylin and eosin for light microscopic analysis. Two or three slices of different sections of the heart containing both right and left ventricle were analyzed from each animal. […] Glomerular damage, when present, was characterized as the presence of either segmental or global sclerosis with ischemic or thrombotic changes. Renal arterial and arteriolar damage was categorized as the presence of fibrinoid necrosis of the vascular wall. The renal arterial and arteriolar profiles presenting damage were counted and the number of injured vessels per section was divided by the number of glomeruli in the same section in order to normalize for the amount of tissue examined. […] Statistical analysis. Data were tested for normality using the Kolmogorov-Smirnov test. Systolic blood pressure was analyzed using repeated measures-analysis of variance for time and treatment group. One-way analysis of variance was used for normally distributed data with one grouping variable. Post-hoc analysis was performed using Newman Keuls multiple-comparison test. Data that were not normally distributed were analyzed with the Kruskal-Wallis test. […]

The test system of data set [2] is saline-loaded adrenalectomized rats treated with aldosterone. The experiment in a line: Antimineralocorticoid activity in saline-loaded adrenalectomized rats treated with aldosterone (Example A-2). In kind it is in vivo. To be noted: aldosterone alone. How it is done:
Methods: The antimineralocorticoid pharmacological activity was determined in saline-loaded adrenalectomized rats treated with aldosterone. […] Urinary sodium, potassium and water excretion were measured.

Data set [3] concerns saline-hydrated conscious dogs treated with aldosterone. The data set is described as follows: Antimineralocorticoid action in saline-hydrated conscious dogs treated with aldosterone (Example A-2). In kind it is in vivo. To be noted: aldosterone i.v. infusion; antagonist 10 mg/kg orally.
Data set [4] concerns saline-loaded adrenalectomized rats treated with aldosterone. The data set is described as follows: Subcutaneous vs. oral eplerenone in saline-loaded adrenalectomized rats treated with aldosterone (Example A-3). The data set is classed as in vivo. The note with it: aldosterone alone. How it is done:
Urinary sodium, potassium and water excretion were measured. The results are expressed as the ratio of excreted urinary sodium to potassium (Na/K)±SEM.

Data set [5] deals with uninephrectomized rats given 1% NaCl and aldosterone infusion. The data set is described as follows: Volume expanded hypertensive rats, telemetry (Example A-4). In kind it is in vivo. The note with it: aldosterone & vehicle; 24 h average after three weeks.
Data set [6] is described as follows: Dissolution rate and physical stability of solid state forms of eplerenone. In kind it is physicochemical. To be noted: temperatures below the enantiotropic transition temperature, versus Form H.

`C[C@]12CCC(=O)C=C1CC[C@@H]1[C@@H]2[C@@H](O)C[C@]2(C=O)[C@@H](C(=O)CO)CC[C@@H]12` [Aldosterone]: in data set [1] (end of experiment (day 14)), the HW came out at 951 ± 16 mg and the “HW/BW (cardiac hypertrophy index)” value is 3.57 ± .06 mg/g. The SBP in data set [1] (end of experiment) was 192 ± 7 mmHg. Moreover, the “Urinary Na/K ± SEM” value in data set [2] was found to be 1.68 ± 0.04. In addition, in data set [3], the “Na/K Ratio” value was 0.09, the “Urinary Excretion Potassium” value was found to be 10.5 mmol/2 h and the “Urinary Excretion Sodium” value is 1.0 mmol/2 h. Further, the “Mean Na/K” value in data set [4] (Table A-3A) came to 1.68. Also, the “Mean Na/K” value in data set [4] (Table A-3B) was found to be 1.21. Besides, in data set [5], the “HR: Heart Rate” value stood at 346 ± 6 beats/min and the “SAP: Systolic arterial pressure” value came to 202 ± 7 mmHg.

Take `COC(=O)[C@@H]1CC2=CC(=O)CC[C@]2(C)[C@@]23O[C@@H]2C[C@@]2(C)[C@@H](CC[C@@]24CCC(=O)O4)[C@H]13` [Form L]: the physical stability result in data set [6] was “greater physical stability”.
